According to doi:10.64898/2025.12.10.692519v1 (biorxiv, 2025):

How the values were obtained:
Assay in all cases: cells
[1] = system: MESSA; parameters: species or system MES-SA/Mx2; settings: Homo sapiens, MES-SA, read-out: MES-SA
[2] = system: CHRF; parameters: species or system CMK; settings: 72 h, read-out: Doxorubicin (IC50 nM)
[3] = system: CMK; parameters: species or system CHRF; settings: Homo sapiens, 72 h, read-out: Doxorubicin (IC50 nM)
[4] = system: A-549; settings: Homo sapiens, A549, 144 h, read-out: Unesbulin (PTC-596)
[5] = system: A4573; settings: A4573, 144 h, read-out: Unesbulin (PTC-596)
[6] = system: CCRF-CEM; settings: Homo sapiens, CCRF-CEM, 144 h, read-out: Unesbulin (PTC-596)
[7] = system: DU-145; settings: Homo sapiens, DU-145, 144 h, read-out: Unesbulin (PTC-596)
[8] = system: H-1299; settings: Homo sapiens, NCI-H1299, 144 h, read-out: Unesbulin (PTC-596)
[9] = system: HEP-2; settings: Homo sapiens, HEp-2, 144 h, read-out: Unesbulin (PTC-596)
[10] = system: HGC-27; settings: Homo sapiens, HGC-27, 144 h, read-out: Unesbulin (PTC-596)
[11] = system: HL-60; settings: Homo sapiens, HL-60, 144 h, read-out: Unesbulin (PTC-596)
[12] = system: HRT-18; settings: Homo sapiens, HRT-18, 144 h, read-out: Unesbulin (PTC-596)
[13] = system: HUT-78; settings: Homo sapiens, HuT78, 144 h, read-out: Unesbulin (PTC-596)
[14] = system: Karpas-299; settings: Homo sapiens, KARPAS-299, 144 h, read-out: Unesbulin (PTC-596)
[15] = system: NALM-6; settings: Homo sapiens, NALM-6, 144 h, read-out: Unesbulin (PTC-596)
[16] = system: PANC-1; settings: Homo sapiens, PANC-1, 144 h, read-out: Unesbulin (PTC-596)
[17] = system: PLC-PRF5; settings: Homo sapiens, PLC-PRF-5, 144 h, read-out: Unesbulin (PTC-596)
[18] = system: REC-1; settings: Homo sapiens, Rec1, 144 h, read-out: Unesbulin (PTC-596)
[19] = system: SK-N-MC; settings: Homo sapiens, SK-N-MC, 144 h, read-out: Unesbulin (PTC-596)
[20] = system: SW-872; settings: Homo sapiens, SW872, 144 h, read-out: Unesbulin (PTC-596)
[21] = system: U-118; settings: 144 h, read-out: Unesbulin (PTC-596)
[22] = system: U2OS; settings: Homo sapiens, U2OS, 144 h, read-out: Unesbulin (PTC-596)
[23] = system: U87-MG; settings: Homo sapiens, U-87 MG, 144 h, read-out: Unesbulin (PTC-596)
[24] = system: WEHI-164; settings: Mus musculus, WEHI-164, 144 h, read-out: Unesbulin (PTC-596)

`COc1cccc2c1C(=O)c1c(O)c3c(c(O)c1C2=O)C[C@@](O)(C(=O)CO)C[C@@H]3O[C@H]1C[C@H](N)[C@H](O)[C@H](C)O1` [doxorubicin] was tested, and the IC50 [1] was 71 ± 56 nM, the IC50 [2] was 681 nM and the IC50 [3] was 844 nM.

Compound `Cc1nc2ccc(F)cc2n1-c1nc(N)c(F)c(Nc2ccc(C(F)(F)F)cc2)n1` [Unesbulin] has an IC50 [4] of 13 nM, an IC50 [5] of 21 nM and an IC50 [6] of 27 nM. It also gave an IC50 [7] of 17 nM, an IC50 [8] of 5 nM and an IC50 [9] of 10 nM. The IC50 [10] was 9 nM, the IC50 [11] was 48 nM and the IC50 [12] was 11 nM. The IC50 [13] was 20 nM, the IC50 [14] was 34 nM and the IC50 [15] was 30 nM. It also gave an IC50 [16] of 21 nM, an IC50 [17] of 25 nM and an IC50 [18] of 17 nM. It also gave an IC50 [19] of 14 nM, an IC50 [20] of 18 nM and an IC50 [21] of 33 nM. It also gave an IC50 [22] of 12 nM, an IC50 [23] of 11 nM and an IC50 [24] of 31 nM.
